In ChEMBL document CHEMBL4840300 (J Nat Prod, 2021):

Columns and labels:
[1] = Cytotoxicity against human HaCaT cells assessed as cell viability at 1 to 10 uM incubated for 24 hrs followed by H2O2 stimulation by celltiter-glo assay relative to control; type: cell-based; conditions: dose 1-10 µM, read-out: Activity
[2] = system: HaCaT; assay: Cytoprotective activity against H2O2-induced oxidative stress in human HaCaT cells assessed as increase in cell viability at 10 uM incubated for 24 hrs followed by H2O2 stimulation by celltiter-glo assay relative to control; type: functional
[3] = system: HaCaT; assay: Effect on cell cycle distribution in human HaCaT cells assessed as <2N cells at 10 uM pretreated for 6 hrs followed by H2O2 challenge for 24 hrs by propidium iodide staining based flow cytometry analysis (Rvb= 1.88%); type: functional; conditions: time 30 hrs
[4] = system: HaCaT; assay: Effect on cell cycle distribution in human HaCaT cells assessed as 2N cells at 10 uM pretreated for 6 hrs followed by H2O2 challenge for 24 hrs by propidium iodide staining based flow cytometry analysis (Rvb= 17.9%); type: functional; conditions: time 30 hrs
[5] = system: HaCaT; assay: Effect on cell cycle distribution in human HaCaT cells assessed as 4N cells at 10 uM pretreated for 6 hrs followed by H2O2 challenge for 24 hrs by propidium iodide staining based flow cytometry analysis (Rvb= 41.0%); type: functional; conditions: time 30 hrs
[6] = system: HaCaT; assay: Effect on cell cycle distribution in human HaCaT cells assessed as >4N cells at 10 uMpretreated for 6 hrs followed by H2O2 challenge for 24 hrs by propidium iodide staining based flow cytometry analysis (Rvb= 11.1%); type: functional; conditions: dose 10 µM; time 30 hrs
[7] = system: HaCaT; assay: Effect on cell cycle distribution in human HaCaT cells assessed as accumulation of cells in G2-M phase at 10 uM pretreated for 6 hrs followed by H2O2 challenge for 24 hrs by propidium iodide staining based flow cytometry analysis relative to control; type: functional; conditions: time 30 hrs
[8] = system: HaCaT; assay: Cytoprotective activity against H2O2-induced oxidative stress in human HaCaT cells assessed as change in cellular ROS level at 1 uM incubated for 6 hrs followed by H2O2 stimulation measured after 24 hrs by DCF-DA dye based fluorescence analysis (reference value: 8.2); type: functional; conditions: time 30 hrs
[9] = system: HaCaT; assay: Cytoprotective activity against H2O2-induced oxidative stress in human HaCaT cells assessed as change in cellular ROS level at 10 uM incubated for 6 hrs followed by H2O2 stimulation measured after 24 hrs by DCF-DA dye based fluorescence analysis (reference value: 8.2); type: functional; conditions: time 30 hrs
[10] = system: HaCaT; assay: Antioxidant activity in human HaCaT cells assessed as reduction in mean fluorescence intensity at 10 uM preincubated for 6 hrs followed by H2O2 stimulation at 200 uM measured after 24 hrs by cellROS staining based flow cytometry analysis; type: functional; conditions: time 30 hrs
[11] = system: HaCaT; assay: Antioxidant activity in human HaCaT cells assessed as reduction in mean fluorescence intensity at 10 uM preincubated for 6 hrs followed by H2O2 stimulation at 400 uM measured after 24 hrs by cellROS staining based flow cytometry analysis; type: functional; conditions: time 30 hrs
[12] = system: HaCaT; assay: Antioxidant activity in human HaCaT cells assessed as reduction in mean fluorescence intensity at 10 uM preincubated for 6 hrs followed by H2O2 stimulation at 600 uM measured after 24 hrs by cellROS staining based flow cytometry analysis; type: functional; conditions: time 30 hrs
[13] = system: HaCaT; assay: Antioxidant activity in human HaCaT cells assessed as reduction in mitochondria-derived ROS production by measuring mean fluorescence intensity at 10 uM preincubated for 6 hrs followed by H2O2 stimulation at 200 uM measured after 24 hrs by mitoSOX staining based flow cytometry analysis; type: functional; conditions: time 30 hrs
[14] = system: HaCaT; assay: Antioxidant activity in human HaCaT cells assessed as reduction in mitochondria-derived ROS production by measuring mean fluorescence intensity at 10 uM preincubated for 6 hrs followed by H2O2 stimulation at 400 uM measured after 24 hrs by mitoSOX staining based flow cytometry analysis; type: functional; conditions: time 30 hrs
[15] = system: HaCaT; assay: Antioxidant activity in human HaCaT cells assessed as reduction in mitochondria-derived ROS production by measuring mean fluorescence intensity at 10 uM preincubated for 6 hrs followed by H2O2 stimulation at 600 uM measured after 24 hrs by mitoSOX staining based flow cytometry analysis; type: functional; conditions: time 30 hrs
[16] = Downregulation of caspase-1 mRNA expression in H2O2- stimulated human HaCaT cells at 10 uM incubated for 6 hrs by SPE based fluorescence amplification assay relative to control; type: functional; conditions: time 30 hrs
[17] = Downregulation of IL-1beta mRNA expression in H2O2- stimulated human HaCaT cells at 10 uM incubated for 6 hrs by SPE based fluorescence amplification assay relative to control; type: functional; conditions: time 30 hrs
[18] = target: T1, Caspase-1 (Homo sapiens) (UniProt P29466); assay: Inhibition of caspase-1 activity in H2O2-stimulated human HaCaT cells assessed as reduction in enzyme activity at 10 uM using […] as a substrate measured after 2 hrs by colorimetric assay relative to control
T1 sequence (whole entry): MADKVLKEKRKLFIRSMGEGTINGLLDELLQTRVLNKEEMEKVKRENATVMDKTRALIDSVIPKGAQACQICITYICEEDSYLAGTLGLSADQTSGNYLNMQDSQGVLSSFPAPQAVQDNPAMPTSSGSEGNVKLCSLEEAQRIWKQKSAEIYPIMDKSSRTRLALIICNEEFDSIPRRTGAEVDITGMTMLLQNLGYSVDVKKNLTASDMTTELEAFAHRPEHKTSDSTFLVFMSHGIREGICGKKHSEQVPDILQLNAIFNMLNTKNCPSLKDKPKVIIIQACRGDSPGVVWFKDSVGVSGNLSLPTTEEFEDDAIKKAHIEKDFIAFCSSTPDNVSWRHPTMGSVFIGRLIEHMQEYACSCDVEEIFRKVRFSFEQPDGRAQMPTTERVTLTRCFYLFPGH

[19] = Inhibition of IL-1beta expression in H2O2- stimulated human HaCaT cells at 10 uM incubated for 6 hrs followed by H2O2 stimulation measured after 24 hrs by ELISA relative to control; type: functional; conditions: time 30 hrs
[20] = system: HaCaT; assay: Anti-pyroptosis activity in human HaCaT cells assessed as reduction in H2O2-induced LDH production at 1 uM incubated for 6 hrs followed by H2O2 stimulation measured after 24 hrs by LDH assay relative to control; type: functional; design: scale not given: the % may be the effect or the level left; conditions: time 30 hrs
[21] = system: HaCaT; assay: Anti-pyroptosis activity in human HaCaT cells assessed as reduction in H2O2-induced LDH production at 10 uM incubated for 6 hrs followed by H2O2 stimulation measured after 24 hrs by LDH assay relative to control; type: functional; design: scale not given: the % may be the effect or the level left; conditions: time 30 hrs
[22] = system: HaCaT; assay: Antiapoptotic activity in human HaCaT cells assessed as reduction in apoptotic cells at 10 uM incubated for 6 hrs followed by H2O2 stimulation measured after 24 hrs by Mitotracker red/annexin V double staining based flow cytometry analysis (Rvb= 12.1%); type: functional; design: scale not given: the % may be the effect or the level left; conditions: time 30 hrs
[23] = target: T2, Caspase-1 (Homo sapiens, UniProt P29466); assay: Binding affinity to recombinant human caspase-1 assessed as dissociation constant measured after 90 sec by SPR method
T2 sequence (P29466 whole entry): T1 sequence (whole entry)

[24] = target: T1, Caspase-1 (Homo sapiens); assay: Binding affinity to recombinant human caspase-1 assessed as association constant measured after 60 sec by SPR method
[25] = target: T2, Caspase-1; assay: Binding affinity to recombinant human caspase-1 assessed as dissociation constant at equilibrium measured after 30 sec by SPR method

Which viability at 24 h, up to 10 µM [1] does the source give for C=C(C)[C@@H]1CCC(C)=C[C@H]1c1c(O)cc(CCCCC)cc1O [CANNABIDIOL] here?
Its viability at 24 h, up to 10 µM is > 90%.

And the Activity [2]?
The Activity was 48.6%.

What about the Activity [3] of the same compound?
The Activity was 1.81%.

What about the Activity [4] of the same compound?
Its Activity is 20.5%.

What about the Activity [5] of the same compound?
The Activity was 45.9%.

And the Activity [6]?
Its Activity is 4.55%.

What about the Activity [7] of the same compound?
Its Activity is 16.7%.

And the “fold change (FC)” value [8]?
Its value is 3.96.

And the “fold change (FC)” value [9]?
Its value is 5.13.

And the Flu intensity [10]?
The Flu intensity was 110.

And the Flu intensity [11]?
The Flu intensity was 96.

And the Flu intensity [12]?
Its Flu intensity is 171.

And the Flu intensity [13]?
Its Flu intensity is 75.

And the Flu intensity [14]?
Its Flu intensity is 78.

And the Flu intensity [15]?
The Flu intensity was 73.

What about the Activity [16] of the same compound?
The Activity was 32.9%.

What about the Activity [17] of the same compound?
The Activity was 50.9%.

What about the inhibition [18] of the same compound?
The inhibition was 15.7%.

And the inhibition at 10 µM [19]?
The inhibition at 10 µM was 16.2%.

And the Activity [20]?
The Activity was 20.7%.

And the Activity [21]?
Its Activity is 23.6%.

What about the Activity [22] of the same compound?
Its Activity is 6.36%.

And the Kd [23]?
The Kd was 18.8 nM.

What about the Ka [24] of the same compound?
Its Ka is 416 M⁻¹ s⁻¹.

And the Kd [25]?
The Kd was 0.078 s⁻¹.
